Data published in PMC7764795, “Physiological Response of Corynebacterium glutamicum to Indole” (Microorganisms, 2020).

Molecular target: T1, Cg3388 (IhtR) (Corynebacterium glutamicum, UniProt Q8NL89)
T1 construct: gene Cgl3059; Cg3388 with N-terminal His-tag kept (pET16b-cg3388), E. coli BL21(DE3), Ni-NTA
T1 sequence (Q8NL89 1-287): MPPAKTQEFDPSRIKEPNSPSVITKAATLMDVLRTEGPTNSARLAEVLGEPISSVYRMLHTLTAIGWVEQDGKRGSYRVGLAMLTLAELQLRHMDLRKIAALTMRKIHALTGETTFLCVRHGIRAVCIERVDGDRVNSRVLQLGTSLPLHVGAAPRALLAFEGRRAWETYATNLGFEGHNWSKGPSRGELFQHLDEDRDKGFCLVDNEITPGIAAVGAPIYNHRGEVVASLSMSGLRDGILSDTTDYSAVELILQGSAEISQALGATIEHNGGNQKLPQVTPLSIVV
Assay: EMSA, release of target DNA by effector
Format: binding
Settings: threshold, not a constant; Cg3388 in 153-fold molar excess over 45 ng cg3388-iolT2 intergenic DNA; pH 7.5, 10 mM MgCl2, room temperature; effector (inducer) of repressor

concentration above which DNA binding is interfered with [mM]	Structure (SMILES)
> 4	c1ccc2[nH]ccc2c1 [indole]
> 0.5	Oc1ccc(O)cc1 [hydroquinone]
> 0.05	Oc1ccc(O)c(O)c1 [1,2,4-trihydroxybenzene]
